In ChEMBL document CHEMBL1122575, “Dependence of beta-lactamase stability on substructures within beta-lactam antibiotics” (J Med Chem, 1984):
In brackets after ≈: the same amount, converted by molar mass. Blank lines part the entries; values can stand above or below the compound they belong to.

What was measured:
[1] = test system: Escherichia coli; assay: cCompound was evaluated for the antibacterial activity against Escherichia coli (RTEM+ organism); 0.4/0.2; type: functional
[2] = test system: Klebsiella aerogenes; assay: Compound was evaluated for the antibacterial activity against Klebsiella aerogenes with strain K1-; 0.8/0.8; type: functional
[3] = test system: Klebsiella aerogenes; assay: Compound was evaluated for the antibacterial activity against Klebsiella aerogenes with strain K1; 100/>100; type: functional
[4] = test system: Escherichia coli; assay: Compound was evaluated for the antibacterial activity against Escherichia coli (RTEM- organism); 0.1/0.4; type: functional
[5] = Relative hydrolysis rate (RHR) was evaluated against K1 enzyme; type: ADME
[6] = Relative hydrolysis rate (RHR) was evaluated against RTEM enzyme; type: ADME
[7] = test system: Klebsiella aerogenes; assay: Compound was evaluated for the antibacterial activity against Klebsiella aerogenes with strain K1- at 10e4/10e6 cfu; 0.4/1.6; type: functional
[8] = test system: Escherichia coli; assay: Compound was evaluated for the antibacterial activity against Escherichia coli (RTEM-organism) at 10e4/10e6 cfu; 0.4/1.6; type: functional
[9] = test system: Klebsiella aerogenes; assay: Compound was evaluated for the antibacterial activity against Klebsiella aerogenes with strain K1+ at 10e4/10e6 cfu; 100/>100; type: functional
[10] = test system: Escherichia coli; assay: Compound was evaluated for the antibacterial activity against Escherichia coli (RTEM+organism) at 10e4/10e6 cfu; 6.3/>100; type: functional
[11] = test system: Staphylococcus aureus; assay: Relative hydrolysis rate (RHR) was evaluated against Staphylococcus aureus with the strain FS108; type: ADME, organism-based
[12] = test system: Staphylococcus aureus; assay: Compound was evaluated for the antibacterial activity against Staphylococcus aureus with the strain 209P; type: functional
[13] = Relative Vmax was reported; type: ADME
[14] = test system: Staphylococcus aureus; assay: Compound was evaluated for the antibacterial activity against Staphylococcus aureus with the strains beta-Lactamase-positive (LAC+)/ beta-Lactamase-negative (LAC-); 64/0.03; type: functional
[15] = test system: Escherichia coli; assay: Compound was evaluated for the antibacterial activity against Escherichia coli (RTEM+organism) at 10E6 colony forming units; type: functional
[16] = Compound was evaluated for the percentage remaining after 24 hr hydrolysis at a pH 7 at 37 degree Centigrade; conditions: buffer
[17] = Compound was evaluated for the relative Vmax against RTEM enzyme; type: ADME
[18] = test system: Klebsiella aerogenes; assay: Compound was evaluated for the antibacterial activity against Klebsiella aerogenes with strain K1+ at 10e4/10e6 cfu; 0.2/0.8; type: functional
[19] = test system: Escherichia coli; assay: Compound was evaluated for the antibacterial activity against Escherichia coli (RTEM-organism) at 10e4/10e6 cfu; 0.2/0.4; type: functional
[20] = test system: Klebsiella aerogenes; assay: Compound was evaluated for the antibacterial activity against Klebsiella aerogenes with strain K1- at 10e4/10e6 cfu; 0.1/0.4; type: functional
[21] = test system: Escherichia coli; assay: Compound was evaluated for the antibacterial activity against Escherichia coli (RTEM+organism) at 10e4/10e6 cfu; 0.1/0.4; type: functional
[22] = test system: Escherichia coli; assay: Compound was evaluated for the antibacterial activity against Escherichia coli (RTEM-organism) at 10e4/10e6 colony forming units; <0.05/0.1; type: functional
[23] = test system: Escherichia coli; assay: Compound was evaluated for the antibacterial activity against Escherichia coli (RTEM+organism) at 10e4/10e6 colony forming units; 0.1/0.1; type: functional
[24] = test system: Klebsiella aerogenes; assay: Compound was evaluated for the antibacterial activity against Klebsiella aerogenes with strain K1+ at 10e4/10e6 colony forming units; 12.5/>100; type: functional
[25] = test system: Klebsiella aerogenes; assay: Compound was evaluated for the antibacterial activity against Klebsiella aerogenes with strain K1- at 10e4/10e6 colony forming units; 0.05/0.1; type: functional
[26] = test system: Staphylococcus aureus; assay: Compound was evaluated for the antibacterial activity against Staphylococcus aureus with the strain beta-Lactamase-positive (LAC+)/beta-Lactamase-negative (LAC-); 2/1; type: functional
[27] = test system: Escherichia coli; assay: Percentage zonal reduction was evaluated against Escherichia coli; type: functional
[28] = test system: Staphylococcus aureus; assay: Percentage zonal reduction was evaluated against Staphylococcus aureus; type: functional
[29] = test system: Escherichia coli; assay: Compound was evaluated for the antibacterial activity against Escherichia coli (RTEM-organism) at 10e4/10e6 cfu; 1.6/1.6; type: functional
[30] = test system: Escherichia coli; assay: Compound was evaluated for the antibacterial activity against Escherichia coli (RTEM+organism) at 10e4/10e6 cfu; 0.8/3.1; type: functional
[31] = test system: Providencia rettgeri; assay: Compound was evaluated for the antibacterial activity against Providencia rettgeri with the strains beta-Lactamase-positive (LAC+); type: functional
[32] = test system: Enterobacter cloacae; assay: Compound was evaluated for the antibacterial activity against Enterobacter cloacae with the strains beta-Lactamase-positive (LAC+); type: functional
[33] = test system: Escherichia coli; assay: Compound was evaluated for the antibacterial activity against Escherichia coli (RTEM+organism) at 10e4/10e6 cfu; 0.1/0.2; type: functional
[34] = test system: Escherichia coli; assay: Compound was evaluated for the antibacterial activity against Escherichia coli (RTEM-organism) at 10e4/10e6 cfu; 0.2/0.2; type: functional
[35] = test system: Klebsiella aerogenes; assay: Compound was evaluated for the antibacterial activity against Klebsiella aerogenes with strain K1+ at 10e4/10e6 cfu; 6.3/>100; type: functional
[36] = test system: Klebsiella aerogenes; assay: Compound was evaluated for the antibacterial activity against Klebsiella aerogenes with strain K1- at 10e4/10e6 cfu; <0.05/0.1; type: functional
[37] = test system: Escherichia coli; assay: Compound was evaluated for the antibacterial activity against Escherichia coli (RTEM-organism) at 10e4/10e6 cfu; 0.1/0.2; type: functional
[38] = test system: Escherichia coli; assay: Compound was evaluated for the antibacterial activity against Escherichia coli (RTEM+organism) at 10e4/10e6 cfu; 0.4/1.6; type: functional
[39] = test system: Klebsiella aerogenes; assay: Compound was evaluated for the antibacterial activity against Klebsiella aerogenes with strain K1- at 10e4/10e6 cfu; 0.2/0.2; type: functional
[40] = test system: Providencia rettgeri; assay: Compound was evaluated for the antibacterial activity against Providencia rettgeri with the strain beta-Lactamase-negative (LAC-); type: functional
[41] = test system: Escherichia coli; assay: Relative hydrolysis rate (RHR) was evaluated against Escherichia coli with the strain RTEM; type: ADME, organism-based
[42] = test system: Escherichia coli; assay: Compound was evaluated for the relative Vmax against Escherichia coli with strain 609 (beta-Lactamase-positive (LAC+); type: ADME, organism-based; conditions: in vivo
[43] = test system: Escherichia coli; assay: Compound was evaluated for the antibacterial activity against Escherichia coli (RTEM+organism) at 10e4/10e6 colony forming units; 0.8/3.1; type: functional
[44] = test system: Escherichia coli; assay: Compound was evaluated for the antibacterial activity against Escherichia coli (RTEM+organism). 10E6 colony forming units are observed; type: functional
[45] = test system: Escherichia coli; assay: Compound was evaluated for the antibacterial activity against Escherichia coli (RTEM+organism). 10e4/10e6 colony forming units are observed; 3.1/25; type: functional
[46] = test system: Escherichia coli; assay: cEscherichia coli with strain NIHJ (beta-Lactamase-negative (LAC-)); type: functional
[47] = test system: Escherichia coli; assay: Compound was evaluated for the antibacterial activity against Escherichia coli (RTEM+organism) at 10e4/10e6 colony forming units; 25/100; type: functional

Structure (SMILES): C#C[C@@H]1[C@H](NC(=O)/C(=N/OC)c2csc(N)n2)C(=O)N1S(=O)(=O)[O-].[K+]
MIC [1]: 0.4 µg/mL
MIC [2]: 0.8 µg/mL
MIC [3]: > 100 µg/mL
MIC [4]: 0.1 µg/mL

Structure (SMILES): CC1(C)S[C@@H]2[C@H](NC(=O)Cc3ccccc3)C(=O)N2[C@H]1C(=O)O [PENICILLIN G]
RHR [11]: 100
MIC [12]: 0.065 µg/mL (≈ 0.194 µM)
RVmax [13]: 1
MIC [14]: 64 µg/mL (≈ 191 µM)

Structure (SMILES): CC[C@@H]1[C@H](NC(=O)/C(=N/OC)c2csc(N)n2)C(=O)N1S(=O)(=O)[O-].[K+]
MIC [18]: 0.2 µg/mL
MIC [19]: 0.2 µg/mL
MIC [20]: 0.1 µg/mL
MIC [21]: 0.1 µg/mL

Structure (SMILES): COc1cccc(OC)c1C(=O)N[C@@H]1C(=O)N2C1SC(C)(C)C2C(=O)O (some centres undefined)
RVmax [13]: 0.04
MIC [26]: 2 µg/mL (≈ 5.26 µM)

Structure (SMILES): CC1=C(C(=O)O)N2C(=O)[C@@H](NC(=O)[C@H](N)c3ccccc3)[C@H]2SC1 [CEPHALEXIN ANHYDROUS]
Zone reduction [27]: 27%
Zone reduction [28]: 48%

Structure (SMILES): CC(C)(O/N=C(/C(=O)N[C@H]1CN(C(=O)NS(C)(=O)=O)C1=O)c1csc(N)n1)C(=O)[O-].[K+]
MIC [29]: 1.6 µg/mL
MIC [30]: 0.8 µg/mL

Structure (SMILES): CO[C@]1(NC(C)=O)CN(S(=O)(=O)[O-])C1=O.[K+]
remaining at 24 h [16]: < 1%
RVmax [17]: < 0.01

Structure (SMILES): Cn1nnnc1SCC1=C(C(=O)[O-])N2C(=O)[C@@H](NC(=O)[C@H](NC(N)=O)c3ccco3)C2SC1.[Na+] (some centres undefined)
MIC [31]: 12.5 µg/mL
MIC [32]: 25 µg/mL

Structure (SMILES): C=C[C@@H]1[C@H](NC(=O)/C(=N/OC)c2csc(N)n2)C(=O)N1S(=O)(=O)[O-].[K+]
MIC [33]: 0.1 µg/mL
MIC [34]: 0.2 µg/mL
MIC [35]: 6.3 µg/mL
MIC [36]: < 0.05 µg/mL

Structure (SMILES): CC1=C(C(=O)O)N2C(=O)[C@@H](NC(=O)[C@@H](N)C3=CCC=CC3)C2SC1 (some centres undefined)
Zone reduction [27]: 12%
Zone reduction [28]: 25%

Structure (SMILES): CC(C)(O/N=C(\C(=O)N[C@H]1CN(S(=O)(=O)[O-])C1=O)c1csc(N)n1)C(=O)[O-].[K+].[K+]
RHR [6]: 2.3
MIC [43]: 0.8 µg/mL

Structure (SMILES): CC(C)O/N=C(\C(=O)N[C@H]1CN(S(=O)(=O)[O-])C1=O)c1csc(N)n1.[K+]
RHR [6]: 7
MIC [47]: 25 µg/mL

Next, values leading:

RHR [5]: 106
RHR [6]: 12
MIC [7]: 0.4 µg/mL
MIC [8]: 0.4 µg/mL
MIC [9]: 100 µg/mL
MIC [10]: 6.3 µg/mL
Structure (SMILES): CO/N=C(/C(=O)N[C@H]1CN(S(=O)(=O)[O-])C1=O)c1csc(N)n1.[K+]

RHR [6]: 100
MIC [15]: 0.1 µg/mL (≈ 0.22 µM)
Structure (SMILES): CO/N=C(\C(=O)N[C@@H]1C(=O)N2C(C(=O)O)=C(COC(C)=O)CSC12)c1csc(N)n1 (some centres undefined)

RHR [6]: 0
MIC [15]: 0.1 µg/mL (≈ 0.212 µM)
Structure (SMILES): CO/N=C(\C(=O)N[C@@H]1C(=O)N2C(C(=O)O)=C(COC(C)=O)C[S@+]([O-])C12)c1csc(N)n1 (some centres undefined)

remaining at 24 h [16]: > 80%
RVmax [17]: 12
Structure (SMILES): CC(=O)N[C@H]1CN(S(=O)(=O)[O-])C1=O.[K+]

MIC [22]: < 0.05 µg/mL
MIC [23]: 0.1 µg/mL
MIC [24]: 12.5 µg/mL
RHR [5]: 6.4
RHR [6]: 0.3
MIC [25]: 0.05 µg/mL
Structure (SMILES): CO/N=C(/C(=O)N[C@@H]1C(=O)N(S(=O)(=O)[O-])[C@@H]1C)c1csc(N)n1.[K+]

MIC [31]: 0.4 µg/mL
MIC [32]: 0.6 µg/mL
Structure (SMILES): Cn1nnnc1SCC1=C(C(=O)[O-])N2C(=O)[C@@H](NC(=O)[C@@H](NC(N)=O)c3ccco3)C2SC1.[Na+] (some centres undefined)

MIC [37]: 0.1 µg/mL
RHR [5]: 20
RHR [6]: 1
MIC [9]: 100 µg/mL
MIC [38]: 0.4 µg/mL
MIC [39]: 0.2 µg/mL
Structure (SMILES): CO/N=C(/C(=O)N[C@@H]1C(=O)N(S(=O)(=O)[O-])[C@H]1C)c1csc(N)n1.[K+]

MIC [40]: > 100 µg/mL
RHR [41]: < 0.02
Structure (SMILES): CO/N=C(\C(=O)NC1CN(S(=O)(=O)[O-])C1=O)c1csc(N)n1.[K+] (centres undefined)

RVmax [42]: 100
RHR [5]: 100
RHR [6]: 100
RVmax [17]: 100
Structure (SMILES): O=C(Cc1cccs1)N[C@@H]1C(=O)N2C(C(=O)[O-])=C(C[n+]3ccccc3)CS[C@H]12 [CEPHALORIDINE]

MIC [44]: 1.6 µg/mL (≈ 3.39 µM)
RHR [6]: 160
Structure (SMILES): CO/N=C(\C(=O)N[C@@H]1C(=O)N2C(C(=O)O)=C(COC(C)=O)C[S@@+]([O-])C12)c1csc(N)n1 (some centres undefined)

MIC [40]: < 0.05 µg/mL
RHR [41]: 106
RHR [6]: 12
MIC [45]: 3.1 µg/mL
Structure (SMILES): CO/N=C(\C(=O)N[C@H]1CN(S(=O)(=O)[O-])C1=O)c1csc(N)n1.[K+]

RHR [6]: 0.96
MIC [46]: 3.13 µg/mL (≈ 6.18 µM)
Structure (SMILES): Cn1nnnc1SCC1=C(C(=O)O)N2C(=O)C(NC(=O)C(C(=O)O)c3ccc(O)cc3)C2SC1 (centres undefined)

RHR [11]: 2.2
MIC [12]: 1.6 µg/mL (≈ 4.78 µM)
Structure (SMILES): CC1(C)SC2[C@@H](NC(=O)Cc3ccccc3)C(=O)N2C1C(=O)O (some centres undefined)
